From patent US20250195513A1, “DEGRADATION OF IRAK4 BY CONJUGATION OF IRAK4 INHIBITORS WITH E3 LIGASE LIGAND AND METHODS OF USE” (BeiGene, Ltd., priority 2022, published 2025)
Read-outs that look alike come from different tables or passages of the source.

Target: T1, IRAK4 (Homo sapiens, UniProt Q9NWZ3)
T1 construct: endogenous in cells; host or cells: Karpas299
T1 sequence (Q9NWZ3 1-460): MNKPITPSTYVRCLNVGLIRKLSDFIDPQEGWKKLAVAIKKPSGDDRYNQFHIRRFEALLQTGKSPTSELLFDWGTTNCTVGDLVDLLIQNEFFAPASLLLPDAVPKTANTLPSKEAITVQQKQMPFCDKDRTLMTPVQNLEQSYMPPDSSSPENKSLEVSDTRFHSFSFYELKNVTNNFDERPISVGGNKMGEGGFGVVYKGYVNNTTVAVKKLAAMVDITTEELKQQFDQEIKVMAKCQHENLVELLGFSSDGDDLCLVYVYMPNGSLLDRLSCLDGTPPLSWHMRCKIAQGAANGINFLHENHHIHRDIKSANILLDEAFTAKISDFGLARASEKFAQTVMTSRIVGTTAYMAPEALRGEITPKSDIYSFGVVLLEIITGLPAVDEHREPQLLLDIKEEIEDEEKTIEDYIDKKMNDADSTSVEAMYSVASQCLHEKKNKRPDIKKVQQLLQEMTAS
Assay: IRAK4 Degradation Assay (Karpas299, HTRF/TR-FRET)
Type: cell-based
Procedure: IRAK4 degradation was measured using a TR-FRET-based method (Degorce, François, et al. Current chemical genomics. 2009, 3: 22). Karpas299 maintained in RPMI 1640 medium (Thermo Scientific) supplemented with 20% fetal bovine serum (FBS, Thermo Scientific), 100 units/mL penicillin and 0.1 mg/mL streptomycin (Thermo Scientific) were seeded into 96-well plates at the density of 0.2 million cells per well and then treated with a series dilution of compounds. After 24 hours or 5 hours treatment, cells were pelleted via centrifugation and 40 μL lysis buffer (Cisbio) was added to each well after removal of the supernatant. Plates were then incubated at room temperature with shaking for 30 minutes. A total of 16 μL of cell lysates from each well of a 96-well plate was transferred to a 384-well white assay plate. IRAK4 level was quantitated using the HTRF kit as described by the manufacturer manual (Cisbio). FRET signals were measured using a PHERAstar FSX reader (BMG Labtech).
After treatment, add HTRF lysis buffer to each well; seal the plate and incubate 1 hour at room temperature on a plate shaker; Once the cells are lysed, 16 μL of cell lysate are transferred to a PE 384-well HTRF detection plate; 4 μL of pre-mixed HTRF antibodies are added to each well; Cover the plate with a plate sealer, spin 1000 rpm for 1 min, Incubate overnight at room temperature; Read on BMG PheraStar with HTRF protocol (337 nm-665 nm-620 nm).
The inhibition (degradation) percentage of the compound was calculated by the following equation: […]
The IC50 (DC50) value of a compound can be obtained by fitting the following equation
Wherein, X and Y are known values, and IC50, Hillslope, Top and Bottom are the parameters obtained by fitting with software. Y is the inhibition percentage (calculated from the equation), X is the concentration of the compound; IC50 is the concentration of the compound when the […] is reached. The smaller the IC50 value is, the stronger the inhibitory ability of the compound is. Vice versa, the higher the IC50 value is, the weaker the ability the inhibitory ability of the compound is; Hillslope represents the slope of the fitted curve, generally around 1 *; Bottom represents the minimum value of the curve obtained by data fitting, which is generally 0%±20%; Top represents the maximum value of the curve obtained by data fitting, which is generally 100%±20%. The experimental data were fitted by calculating and analyzing with Dotmatics data analysis software.

[1] = Karpas-299 cells, 24 h treatment, maximum percentage of degradation, read-out: IRAK4 in Karpas-299 (24 h) Dmax (%)
[2] = Karpas-299 cells, 24 h treatment, read-out: IRAK4 in Karpas-299 (24 h) DC50

Row | SMILES | DC50 (Degradation (Karpas-299), comparison table, Linker Type A, read-out: Compound (Linker Type A) DC50) [nM] | Dmax (Degradation (Karpas-299), comparison table, Linker Type A, read-out: Compound (Linker Type A) Dmax (%)) [%] | Dmax [1] [%] | DC50 [2] [nM] | DC50 (Degradation (Karpas-299), comparison table, Linker Type B, read-out: Compound (Linker Type B) DC50) [nM] | Dmax (Degradation (Karpas-299), comparison table, Linker Type B, read-out: Compound (Linker Type B) Dmax (%)) [%]
1 | COc1cc2nn([C@H]3CC[C@H](CN4CCN(C(=O)[C@H]5CC[C@H](Oc6ccc(N7CCC(=O)NC7=O)cc6)CC5)CC4)CC3)cc2cc1NC(=O)c1cccc(C(F)(F)F)n1 [Example 6, N-(2-((1R,4r)-4-((4-((1r,4R)-4-(4-(2,4-dioxotetrahydropyrimidin-1(2H)-yl)phenoxy)cyclohexane-1-carbonyl)piperazin-1-yl)methyl)cyclohexyl)-6-methoxy-2H-indazol-5-yl)-6-(trifluoromethyl)picolinamide] | > 10000 | 11 | 11 | > 10000 | – | –
2 | O=C1CCN(c2ccc(N3CCC(N4CCN([C@H]5CC[C@H](n6cc(NC(=O)c7coc(-c8ccnc(NCC(F)(F)F)c8)n7)c(C(F)F)n6)CC5)CC4)C3)cc2)C(=O)N1 (stereo partly drawn) [Example 21, N-(3-(difluoromethyl)-1-((1r,4r)-4-(4-(1-(4-(2,4-dioxotetrahydropyrimidin-1(2H)-yl)phenyl)pyrrolidin-3-yl)piperazin-1-yl)cyclohexyl)-1H-pyrazol-4-yl)-2-(2-((2,2,2-trifluoroethyl)amino)pyridin-4-yl)oxazole-4-carboxamide] | – | – | 98 | 4.4 | – | –
3 | CC(C)(O)c1cc2nn(C3CCN(C4CCN(C(=O)[C@H]5CCN(c6ccc(N7CCC(=O)NC7=O)cc6)C5)CC4)CC3)cc2cc1NC(=O)c1cccc(C(F)(F)F)n1 [Example 163, (S)—N-(2-(1′-(1-(4-(2,4-dioxotetrahydropyrimidin-1(2H)-yl)phenyl)pyrrolidine-3-carbonyl)-[1,4′-bipiperidin]-4-yl)-6-(2-hydroxypropan-2-yl)-2H-indazol-5-yl)-6-(trifluoromethyl)picolinamide] | – | – | 95 | 3.8 | – | –
4 | COc1cc2nn([C@H]3CC[C@H](N4CCN(C(=O)[C@@H]5CCN(c6ccc(N7CCC(=O)NC7=O)cc6)C5)CC4)CC3)cc2cc1NC(=O)c1cccc(C(F)(F)F)n1 [Example 164, N-(2-((1R,4r)-4-(4-((R)-1-(4-(2,4-dioxotetrahydropyrimidin-1(2H)-yl)phenyl)pyrrolidine-3-carbonyl)piperazin-1-yl)cyclohexyl)-6-methoxy-2H-indazol-5-yl)-6-(trifluoromethyl)picolinamide] | – | – | 97 | 2 | 2 | 97
5 | COc1cc2nn(C3CCN(C4CN(C(=O)C5CN(c6cc(F)c([C@H]7CCC(=O)NC7=O)c(F)c6)C5)C4)CC3)cc2cc1NC(=O)c1cccc(C(F)(F)F)n1 [Example 41, (R)—N-(2-(1-(1-(1-(4-(2,6-dioxopiperidin-3-yl)-3,5-difluorophenyl)azetidine-3-carbonyl)azetidin-3-yl)piperidin-4-yl)-6-methoxy-2H-indazol-5-yl)-6-(trifluoromethyl)picolinamide] | – | – | 95 | 1.1 | – | –
6 | CC(C)(O)c1cc2nn([C@H]3CC[C@H](CN4CCN(C5CN(c6cc(F)c([C@H]7CCC(=O)NC7=O)c(F)c6)C5)CC4)CC3)cc2cc1NC(=O)c1csc(-c2cn[nH]c2)n1 [Example 433, N-(2-((1r,4r)-4-((4-(1-(4-((R)-2,6-dioxopiperidin-3-yl)-3,5-difluorophenyl)azetidin-3-yl)piperazin-1-yl)methyl)cyclohexyl)-6-(2-hydroxypropan-2-yl)-2H-indazol-5-yl)-2-(1H-pyrazol-4-yl)thiazole-4-carboxamide] | – | – | 99 | 0.2 | – | –
7 | O=C1CCN(c2c(F)cc(N3CC[C@H](C(=O)N4CCN([C@H]5CC[C@H](n6cc(NC(=O)c7cnn(-c8ccnc(NCC9CC9)c8)n7)c(C(F)F)n6)CC5)CC4)C3)cc2F)C(=O)N1 [Example 63, 2-(2-((cyclopropylmethyl)amino)pyridin-4-yl)-N-(3-(difluoromethyl)-1-((1S,4r)-4-(4-((S)-1-(4-(2,4-dioxotetrahydropyrimidin-1(2H)-yl)-3,5-difluorophenyl)pyrrolidine-3-carbonyl)piperazin-1-yl)cyclohexyl)-1H-pyrazol-4-yl)-2H-1,2,3-triazole-4-carboxamide] | – | – | 95 | 15 | – | –
8 | CC(C)(O)c1cc2nn(C3CCN(C4CCN(C(=O)[C@@H]5CCN(c6ccc(N7CCC(=O)NC7=O)cc6)C5)CC4)CC3)cc2cc1NC(=O)c1cccc(C(F)(F)F)n1 [Example 162, (R)—N-(2-(1′-(1-(4-(2,4-dioxotetrahydropyrimidin-1(2H)-yl)phenyl)pyrrolidine-3-carbonyl)-[1,4′-bipiperidin]-4-yl)-6-(2-hydroxypropan-2-yl)-2H-indazol-5-yl)-6-(trifluoromethyl)picolinamide] | – | – | 96 | 5.7 | – | –
9 | CC(C)(O)c1cc2nn([C@H]3CC[C@H](N4CCN(C(=O)[C@@H]5CCN(c6cc(F)c(N7CCC(=O)NC7=O)c(F)c6)C5)CC4)CC3)cc2cc1NC(=O)c1cccc(C(F)(F)F)n1 [Example 115, N-(2-((1R,4r)-4-(4-((R)-1-(4-(2,4-dioxotetrahydropyrimidin-1(2H)-yl)-3,5-difluorophenyl)pyrrolidine-3-carbonyl)piperazin-1-yl)cyclohexyl)-6-(2-hydroxypropan-2-yl)-2H-indazol-5-yl)-6-(trifluoromethyl)picolinamide] | – | – | 96 | 3.8 | – | –
10 | CC(C)(O)c1cc2nn([C@H]3CC[C@H](N4CCN(CCc5cc(F)c([C@H]6CCC(=O)NC6=O)c(F)c5)CC4)CC3)cc2cc1NC(=O)c1ccn2cc(C#N)cnc12 [Example 413, 3-cyano-N-(2-((1R,4r)-4-(4-(4-((R)-2,6-dioxopiperidin-3-yl)-3,5-difluorophenethyl)piperazin-1-yl)cyclohexyl)-6-(2-hydroxypropan-2-yl)-2H-indazol-5-yl)pyrrolo[1,2-a]pyrimidine-8-carboxamide] | – | – | 25 | > 1000 | – | –
11 | CC1(C)OC(c2ccc3cc(C#N)cnn23)=Nc2cc3cn(C4CCN(C5CCN(C(=O)[C@@H]6CCN(c7cc(F)c([C@H]8CCC(=O)NC8=O)c(F)c7)C6)CC5)CC4)nc3cc21 [Example 412, 7-(2-(1′-((R)-1-(4-((R)-2,6-dioxopiperidin-3-yl)-3,5-difluorophenyl)pyrrolidine-3-carbonyl)-[1,4′-bipiperidin]-4-yl)-8,8-dimethyl-2,8-dihydro-[1,3]oxazino[4,5-f]indazol-6-yl)pyrrolo[1,2-b]pyridazine-3-carbonitrile] | – | – | 5 | > 10000 | – | –
12 | CC(C)(O)c1cc2nn([C@H]3CC[C@H](N4CCN(C(=O)[C@@H]5CCN(c6cc(F)c([C@H]7CCC(=O)NC7=O)c(F)c6)C5)CC4)CC3)cc2cc1NC(=O)c1cccn(C2CC2)c1=O [Example 103, 1-cyclopropyl-N-(2-((1R,4r)-4-(4-((R)-1-(4-((R)-2,6-dioxopiperidin-3-yl)-3,5-difluorophenyl)pyrrolidine-3-carbonyl)piperazin-1-yl)cyclohexyl)-6-(2-hydroxypropan-2-yl)-2H-indazol-5-yl)-2-oxo-1,2-dihydropyridine-3-carboxamide] | – | – | 90 | 4.4 | – | –
13 | O=C1CC[C@H](c2c(F)cc(N3CC(CN4CCN([C@H]5CC[C@H](n6cc(NC(=O)c7coc(-c8ccnc(NCC9CC9)c8)n7)c(C(F)F)n6)CC5)CC4)C3)cc2F)C(=O)N1 [Example 27, 2-(2-((cyclopropylmethyl)amino)pyridin-4-yl)-N-(3-(difluoromethyl)-1-((1r,4r)-4-(4-((1-(4-((R)-2,6-dioxopiperidin-3-yl)-3,5-difluorophenyl)azetidin-3-yl)methyl)piperazin-1-yl)cyclohexyl)-1H-pyrazol-4-yl)oxazole-4-carboxamide] | – | – | 99 | 2.8 | – | –
